Experimental data taken from article PMC6764326, “The Trials and Tribulations of Structure Assisted Design of KCa Channel Activators” (Frontiers in Pharmacology, 2019).

Assays:
[1] = target: T1, KCa2.2 (Homo sapiens, UniProt P0DP23+Q9H2S1); assay: QPatch automated whole-cell patch-clamp screen, 10 µM activator normalized to 10 µM SKA-31; format: cell-based; settings: 250 nM free internal Ca2+, HEK cells stably expressing channel
T1 construct: expressed in transfected cells
Experimental: (§1) All experiments were performed in either the inside-out or the whole-cell configuration of the patch-clamp technique on either transiently transfected CHO cells or Human Embryonic Kidney (HEK) cell lines stably expressing hKCa3.1 or hKCa2.2 ([Sankaranarayanan et al., 2009]). All cells were cultured in Dulbecco’s modified Eagle’s medium supplemented with 10% fetal calf serum. Wild-type (WT) and mutant hKCa3.1 channel constructs were transfected using FuGENE 6 transfection reagent (Promega, Madison, WI) in OptiMEM reduced-serum medium (Life Technologies, Benicia, CA) for manual patch-clamp experiments or via electroporation (Nucleofector 2b and Lonza Amaxa Cell Line Nucleofector Kit T) according to the manufacturer’s instructions for automated electrophysiology.
(§2) The procedure for performing automated whole-cell KCa channel recordings on a QPatch-16 automated electrophysiology platform (Sophion Biosciences) was previously described in detail by our laboratory ([Jenkins et al., 2013]). For the current study we used the solutions described above with disposable 16-channel planar patch chip plates (QPlates; patch hole diameter […], resistance 2.00–0.02MΩ, Sophion Biosciences, Woburn, MA). Cell positioning and sealing parameters were set as follows: positioning pressure -70 mbar, resistance increase for success 750%, minimum seal resistance 0.1 GΩ, holding potential -0 mV, holding pressure -20 mbar. To avoid rejection of cells with large KCa3.1 currents, the minimum seal resistance for whole-cell requirement was lowered to 0.001 GΩ. Access was obtained with the following sequence: 1) suction pulses in 29 mbar increments from -250 mbar to -453 mbar; 2) a suction ramp of an amplitude of -450 mbar; 3) -400 mV voltage zaps of 1 ms duration. Following establishment of the whole-cell configuration, cells were held at -80 mV and KCa currents elicited by a voltage protocol that held at -80 mV for 20 ms, stepped to -120 mV for 20 ms, ramped from -120 to + 40 mV in 200 ms, and then stepped back to -120 mV for 20 ms. This pulse protocol was applied every 10 s. KCa activator dilutions were prepared freshly (within 5 min of the initiation of the QPatch) with Ringer’s solution from 10 mM stock solutions in dry DMSO. Final DMSO concentrations never exceeded 1%. Glass vial inserts (to avoid adsorption) were filled with 400 µL of compound solution and placed into the insert base plate for use in the QPatch assay. Exemplary QPatch raw current traces and plots of slope conductance versus time are shown in Supplementary Figure 3 . For each compound we typically used 12 consecutive liquid periods Break-in, 3 saline additions to stabilize the current, 2 additions of test compound at 10 µM, 2 saline washes, 2 additions of SKA-31 at 10 µM, followed by 2 more saline washes. In each liquid period 10 pulse protocols were run.
(§3) The newly synthesized compounds were tested by automated whole-cell patch-clamp for their ability to activate KCa2.2 and KCa3.1 channels stably expressed in HEK cells. […] A promising compound would ideally do both. […] We started by comparing the effect of the SKA-74 derivatives to SKA-31 ( Figure 4A ).
(§4) Figure 4 Whole-cell KCa3.1 and KCa2.2 responses elicited by 10 µM of activator and normalized to 10 µM of the mixed activator SKA-31. Experiments were performed by automated electrophysiology with 250 nM of free internal Ca^2+. In each experiment the new activator was tested first, washed out with 2 saline additions, and then SKA-31 was applied as positive control for normalization of the response. (A) Screening of SKA-74 derivatives. (B) Screening of SKA-75 and SKA-76 derivatives. The bar graphs show means ± SD of the slope conductance measured between −85 and −65 mV (n = 2–7 cells). Chemical structures are shown below the bar graphs.
(§5) Figure 5 Whole-cell KCa3.1 and KCa2.2 responses elicited by 10 µM of activator and normalized to 10 µM of the mixed activator SKA-31. […]

[2] = target: T2, KCa3.1 (Homo sapiens, UniProt O15554+P0DP23); assay: as above; format: cell-based; settings: for Whole-cell KCa3.1 response elicited by 10 µM of activator normalized to 10 µM SKA-31 (described in words): 250 nM free internal Ca2+, HEK cells stably expressing channel
T2 construct: expressed in transfected cells
Experimental: as §1, §2, §3, §4, §5

[3] = parameters: method as in Coleman et al., 2014; settings: ref Coleman et al., 2014, cited from earlier work; for KCa2 channel mediated side effects on CNS and heart rate: mice; for Blood pressure lowering: normotensive and hypertensive mice
[4] = system: KCa3.1 over KCa2 channels; settings: second generation activators; ref Coleman et al., 2014; cited from earlier work

| Compound | Whole-cell KCa2.2 response elicited by 10 µM of activator normalized to 10 µM SKA-31 (described in words) [1] | Whole-cell KCa3.1 response elicited by 10 µM of activator normalized to 10 µM SKA-31 (described in words) [2] | melting point | Selectivity between KCa3.1 and KCa2.2 in the 10 µM screen ([2]; KCa3.1 versus KCa2.2, 250 nM free Ca2+) | KCa2 channel mediated side effects on CNS and heart rate [3] | Blood pressure lowering [3] | Selectivity for KCa3.1 [4] |
| --- | --- | --- | --- | --- | --- | --- | --- |
| Cc1ccc2cccc(-c3csc(N)n3)c2c1 [SKA-193, 4-(7-Methylnaphthalen-1-yl)thiazol-2-amine] | somewhat increased KCa channel activating potency | somewhat increased KCa channel activating potency | 154 to 156 °C | – | – | – | – |
| Cc1cc2sc(N)nc2c2ccccc12 [SKA-111, 5-methylnaphtho[1,2-d]thiazol-2-amine] | – | – | – | – | avoiding KCa2 channel mediated side effects on the CNS and on heart rate | efficacious in lowering blood pressure | – |
| Cc1cc2nc(N)oc2c2ccccc12 [SKA-121, 5-methylnaphtho[2,1-d]oxazol-2-amine] | – | – | – | – | avoiding KCa2 channel mediated side effects on the CNS and on heart rate | efficacious in lowering blood pressure | 40–100 fold |
| Cc1nc2c(ccc3c([N+](=O)[O-])cccc32)s1 [SKA-215, 2-Methyl-6-nitronaphtho[1,2-d]thiazole] | inactive | inactive | 178 to 179 °C | – | – | – | – |
| CCN(CC)c1cc2sc(N)nc2c2ccccc12 [SKA-330, N^5,N^5-Diethylnaphtho[1,2-d]thiazole-2,5-diamine] | somewhat reduced potency | somewhat reduced potency | 119 to 121 °C | – | – | – | – |
| Nc1nc2c(cc([N+](=O)[O-])c3ccccc32)s1 [SKA-321, 5-Nitronaphtho[1,2-d]thiazol-2-amine] | drastically reduced potency | drastically reduced potency | 289 to 291 °C | – | – | – | – |
| Cc1nc2c(cc(C#N)c3ccccc32)o1 [SKA-135, 2-Methylnaphtho[1,2-d]oxazole-5-carbonitrile] | inactive | inactive | 145 to 146 °C | – | – | – | – |
| Cc1nc2c(cc(Br)c3ccccc32)o1 [SKA-133, 5-Bromo-2-methylnaphtho[1,2-d]oxazole] | decreased activity | – | 101 to 102 °C | preserved selectivity for KCa3.1 | – | – | – |
| CNc1nc2c(ccc3ccccc32)s1 [SKA-158, N-Methylnaphtho[1,2-d]thiazol-2-amine] | abolished activity on KCa2.2 | preserved it again on KCa3.1 | 187 to 188 °C | – | – | – | – |
| Cc1ccc2cc(-c3csc(N)n3)ccc2c1 [SKA-198, 4-(6-Methylnaphthalen-2-yl)thiazol-2-amine] | somewhat increased KCa channel activating potency | somewhat increased KCa channel activating potency | 178 to 179 °C | – | – | – | – |

Now from value to compound, other results behind:

| Whole-cell KCa2.2 response elicited by 10 µM of activator normalized to 10 µM SKA-31 (described in words) [1] | Whole-cell KCa3.1 response elicited by 10 µM of activator normalized to 10 µM SKA-31 (described in words) [2] | melting point | Selectivity between KCa3.1 and KCa2.2 in the 10 µM screen ([2]; KCa3.1 versus KCa2.2, 250 nM free Ca2+) | Compound | KCa2 channel mediated side effects on CNS and heart rate [3] | Blood pressure lowering [3] | Selectivity for KCa3.1 [4] |
| --- | --- | --- | --- | --- | --- | --- | --- |
| completely devoid of activity | completely devoid of activity | 108 °C | – | Cc1ccc(-c2csc(Nc3cccc(C(F)(F)F)c3)n2)cc1 [SKA-260, 4-(p-Tolyl)-N-(3-(trifluoromethyl)phenyl)thiazol-2-amine] | – | – | – |
| completely abolished activity | completely abolished activity | 135 °C | – | FC(F)(F)c1cccc(Nc2nc(-c3cccc4ccccc34)cs2)c1 [SKA-251, 4-(Naphthalen-1-yl)-N-(3-(trifluoromethyl)phenyl)thiazol-2-amine] | – | – | – |
| completely abolished activity | completely abolished activity | 225 °C | – | c1ccc(Nc2nc(-c3cccc4ccccc34)cs2)nc1 [SKA-258, 4-(Naphthalen-1-yl)-N-(pyridin-2-yl)thiazol-2-amine] | – | – | – |
| less potent than SKA-31 | less potent than SKA-31 | 140 to 141 °C | – | c1ccc(Nc2nc3c(ccc4ccccc43)s2)cc1 [SKA-146, N-Phenylnaphtho[1,2-d]thiazol-2-amine] | – | – | – |
| completely devoid of activity | completely devoid of activity | 350 °C | – | Nc1nc(-c2ccc(-c3csc(N)n3)cc2)cs1 [SKA-230, 4,4'-(1,4-Phenylene)bis(thiazol-2-amine)] | – | – | – |
